Measurements: patent US10660789B2, “1,4-dihydropyridine derivatives with HSP modulating activity” (Richter Gedeon NYRT., priority 2011, dated 2020)
Counter-ions that a name gives are not always drawn.

Tests used:
Hsp25 = experiment: Other in vitro effects, Hsp25 (Table 3); assay type: cell-based, mouse and human; design: key: +: co-inducing activity; −: silencing activity; 0: with the experimental methods applied no other HSP modulating effects could be identified
Description: The Hsp co-inducing effect of the compounds on stress response was tested on B16 mouse melanoma and SHSY5Y human neuroblastoma cell lines stably transfected with Hsp promoter probing plasmids. This kind of promoter probing, using the promoter region of a given gene conjugated with fluorescent protein is used as a best and fastest test system for finding drugs which modulate the activity of the gene followed by the given promoter (Wyshocka et al., Mol. Cel. Biochem. 215:153-156, 2000).
Reporter plasmids, containing the Hsp70 and/or Hsp25 promoter conjugated to either YFP or GFP (yellow or green fluorescent protein), were stably transfected into the cells and the expression of YFP or GFP was followed by flow cytometry. Cells were either kept at 37° C. or exposed to heat shock at 42° C. for 1 hour followed by a 16 hour recovery period at 37° C. in the presence or absence of different concentrations of the test compound. After recovery the expression of YFP or GFP which is in straight correlation with the promoter activity of Hsp70 or Hsp27 genes was followed by measuring the fluorescence intensity of the cells by flow cytometry. Fluorescence intensity is in straight correlation with the amount of fluorescent protein (GFP or YFP) produced under the control of hsp promoter. The mean fluorescence intensity of YFP or GFP produced is shown as “Hsp promoter activity”.
Cells were homogenously distributed on 6-well plates in 1×10^5 cells/well density. B16-pHsp25-GFP and B16-pHsp70-YFP melanoma cells were grown in RPMI-1640 medium supplemented with 10% Fetal bovine serum (FBS), penicillin (200 units/ml), streptomycin (200 μg/ml) and 2 mM L-Glutamine. […] The changes in cells' fluorescence were detected using BD FACSCalibur flow cytometer.
SY-SY5Y and B16 cells were extracted in NP-40 lysis buffer (PBS pH 7.4, 1% protease inhibitor coctail and 1% Triton X-100). […] The immune complexes were detected with chemo-luminescent substrate of peroxidase according to the supplier's instructions. Images taken from the membranes were analyzed using AlphaEase FC software.

[1] = system: APP mutant transgenic mice; experiment: Morris water maze, wild and APP mutant transgenic mice; assay type: in vivo, mouse; conditions: daily i.p. for 6 months, FIG. 6
Excerpt: The neuro- and memoryprotective effect of the compounds of invention was studied on wild and APP mutant transgenic mice. These mice express high levels of mutant beta-amyloid and, with increasing age, develop both substantial amyloid plaque load and memory deficits. Spatial memory disfunction [with the Morris water maze (MWM) behavioural task assay] and histological assays (cell density, astroglial response, tau-pathology, amyloid-histology and dendritic spine density) in the hippocampal (HC) region (key area for the memory-function) were performed.
The Morris water navigation task is a behavioral procedure widely used in behavioral neuroscience to study spatial learning and memory. The classic measure of learning is latency, which is the time it takes to find the platform after repeating the task daily.
16 adult female APP+ transgenic and 16 adult female wild type mice were the subjects of the experiment. The animals were housed in sterile mouse cages with a natural dark/light cycle, they had free access to food and water throughout the experiment. After arrival, the mice were daily gently handled for a week. […]
Spatial learning and memory were assessed in a circular pool (diameter: 130 cm, height: 60 cm), filled with water (23±1° C.) and made opaque with milk. […]
The data were recorded and evaluated automatically by using a video tracking system. […]

SKH-1 hairless mice = experiment: UVB induced skin edema in SKH-1 hairless mice; assay type: in vivo, mouse
Description: To evaluate the effects of systemic administration of Ex. 23 on UVB induced edema 16 SKH-1 hairless mice were divided into two groups of 8 animals each. Group 1 mice (Control) were exposed to 230 mJ/cm^2 UVB consecutively for 2 days (a total cumulative UVB dose of 460 mJ/cm^2), which evoked edema as described by Athar et al. (Tox. Appl. Pharmacol. 195: 370-378, 2004). Group 2 mice received Ex 23. (10 mg/kg) intraperitoneally 30 min before the first UV treatment. The administration of the compound Ex. 23 was repeated 24 and 48 hours later. UVB-induced skin edema was monitored by measuring the increase in dorsal skin thickness using an ultrasound skin scanner (22 MHz).

With `COC(=O)C1=C(CCN(C)C)N(C)C(CCN(C)C)=C(C(=O)OC)C1c1ccc(C(F)(F)F)cc1` [Example 23, Dimethyl 4-(4-trifuoromethylphenyl)-2,6-bis-(2-dimethylaminoethyl)-1-methyl-1,4-dihydropyridine-3,5-dicarboxylate dihydrochloride] the “Other in vitro effects: Hsp25” value (Hsp25) was “Hsp25 0”, the “spatial memory, time to find the hidden platform in Morris water maze” value [1] was “enhances the ability of both the wild type and the memory deficit mutant mice to find the hidden platform” and the “UVB induced skin edema (increase in skin thickness)” value (SKH-1 hairless mice; 10 mg/kg i.p. 30 min before first UV, repeated 24 and 48 hours later, FIG. 7) was “substantially protected against edema formation”. The In vivo efficacy (SKH-1 hairless mice; model in which efficacy was shown) was “UVB protection”.
